Assay results published in patent US20230257351A1, “SUBSTITUTED N-[…] HAVING P2X4 RECEPTOR ANTAGONISTIC ACTIVITY” (Bayer Aktiengesellschaft, priority 2020, published 2023).
pIC50: −log10 of the molar value.

Molecular target: T1, human P2X4 (Homo sapiens, UniProt Q99571)
T1 construct: expressed in transfected cells
T1 sequence (Q99571 1-388): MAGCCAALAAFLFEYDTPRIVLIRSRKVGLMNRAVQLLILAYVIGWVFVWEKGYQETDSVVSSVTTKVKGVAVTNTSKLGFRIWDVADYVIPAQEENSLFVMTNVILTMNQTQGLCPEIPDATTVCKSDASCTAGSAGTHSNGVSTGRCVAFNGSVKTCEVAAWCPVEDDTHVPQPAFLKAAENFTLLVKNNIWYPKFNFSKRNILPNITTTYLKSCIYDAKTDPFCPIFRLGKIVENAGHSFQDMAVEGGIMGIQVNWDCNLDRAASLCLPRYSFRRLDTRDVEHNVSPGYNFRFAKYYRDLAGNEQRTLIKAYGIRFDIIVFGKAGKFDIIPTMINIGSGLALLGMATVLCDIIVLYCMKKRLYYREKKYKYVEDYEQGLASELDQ
Assay: Human P2X4 HEK Cell FLIPR Assay
Assay type: cell-based
Conditions: HEK293 stably expressing human P2X4, agonist Bz-ATP 3 μM (EC80); for pIC50: read-out: Human P2X4 HEK Cells (FLIPR Assay) avg IC50
Protocol: Compounds were tested on a HEK293 cell line stably expressing human P2X4. Cells were cultured on poly-D-lysine-coated 384-well plates at a density of 15,000 cells/well and incubated overnight at 37° C., 5% CO2. P2X4 function was assessed by measuring intracellular calcium fluxes caused by Benzoylbenzoyl-ATP (Bz-ATP) using the calcium-chelating dye Fluo8-AM (Molecular Devices) with the Fluorescent Imaging Plate Reader Tetra (FLIPR^Tetra; Molecular Devices CA). On the day of the assay, the medium was removed and the cells were incubated for 30 min at 37° C. and 5% CO2 in 30 μl of dye buffer (Hank's balanced salt solution, 10 mM HEPES, 1.8 mM CaCl2, 1 mM MgCl2, 2 mM probenecid, 5 mM D-glucose monohydrate, 5 μM Fluo8-AM, pH=7.4). Compounds diluted in probenecid buffer (Hank's balanced salt solution, 10 mM HEPES, 1.8 mM CaCl2, 1 mM MgCl2, 2 mM probenecid, 5 mM D-glucose monohydrate, pH=7.4) at ten concentrations ranging from 25 μM to 1 nM (final concentration) were dispensed and incubated for 30 min at room temperature. […] The final assay volume was 50 μl and final DMSO concentration was 0.5%.
The fluorescence intensity reflecting intracellular calcium changes was recorded before and after Bz-ATP addition, at an excitation and emission wavelengths of 470-495 nm and 515-575 nm respectively.
The compounds were tested in triplicates and fluorescence intensity raw data normalized to the agonist control and fitted to the four-parameter logistic equation:
Y=Bottom+(Top−Bottom)/(1+10^((Log IC50−X)*HillSlope))
Assay plate acceptance was based on the signal window (S/B)[…] and the reference compound pIC50 within ±3σ the mean of historic pIC50 of the compound. Failure to meet two of the three criteria determined exclusion of the plate's results.

SMILES	Human P2X4 HEK Cells (FLIPR Assay) avg Efficacy [%]	pIC50
CC(=O)N(c1cccc(C(F)(F)F)c1)c1cc(NC(=O)Cc2ccc(F)cc2Cl)ccn1 [Example 7, N-{4-[2-(2-chloro-4-fluorophenyl)acetamido]pyridin-2-yl}-N-[3-(trifluoromethyl)phenyl]acetamide]	97	6.07
CC(=O)N(c1cccc(C(F)(F)F)c1)c1cc(NC(=O)Cc2c(Cl)cccc2Cl)ccn1 [Example 9, N-{4-[2-(2,6-dichlorophenyl)acetamido]pyridin-2-yl}-N-[3-(trifluoromethyl)phenyl]acetamide]	99	6.13
CC(=O)N(c1ccc(C#N)c(C(F)(F)F)c1)c1cc(NC(=O)Cc2ccccc2Cl)ccn1 [Example 10, N-{4-[2-(2-chlorophenyl)acetamido]pyridin-2-yl}-N-[4-cyano-3-(trifluoromethyl)phenyl]acetamide]	94	–
CC(=O)N(c1ccc(C#N)c(C(F)(F)F)c1)c1cc(NC(=O)Cc2cccc(F)c2Cl)ccn1 [Example 11, N-{4-[2-(2-chloro-3-fluorophenyl)acetamido]pyridin-2-yl}-N-[4-cyano-3-(trifluoromethyl)phenyl]acetamide]	100	–
CC(=O)N(c1ccc(C#N)c(C(F)(F)F)c1)c1cc(NC(=O)Cc2c(Cl)cccc2Cl)ccn1 [Example 12, N-[4-cyano-3-(trifluoromethyl)phenyl]-N-{4-[2-(2,6-dichlorophenyl)acetamido]pyridin-2-yl}acetamide]	101	–
CC(=O)N(c1ccc(F)c(C#N)c1)c1cc(NC(=O)Cc2cccc(C(F)(F)F)c2Cl)ccn1 [Example 20, N-(4-{2-[2-chloro-3-(trifluoromethyl)phenyl]acetamido}pyridin-2-yl)-N-(3-cyano-4-fluorophenyl)acetamide]	99	6.13
CC(=O)N(c1ccccc1)c1cc(NC(=O)Cc2c(F)cccc2Cl)ccn1 [Example 28, N-{4-[2-(2-chloro-6-fluorophenyl)acetamido]pyridin-2-yl}-N-phenylacetamide]	91	6.11
CC(=O)N(c1ccc(F)cc1)c1cc(NC(=O)Cc2ccc(Cl)cc2C(F)(F)F)ccn1 [Example 31, N-(4-{2-[4-chloro-2-(trifluoromethyl)phenyl]acetamido}pyridin-2-yl)-N-(4-fluorophenyl)acetamide]	100	6.04
CC(=O)N(c1ccc(F)cc1)c1cc(NC(=O)Cc2cccc(C(F)(F)F)c2Cl)ccn1 [Example 35, N-(4-{2-[2-chloro-3-(trifluoromethyl)phenyl]acetamido}pyridin-2-yl)-N-(4-fluorophenyl)acetamide]	99	6.03
CCc1cc(Cl)c(CC(=O)Nc2ccnc(N(C(C)=O)c3ccc(F)c(F)c3)c2)c(Cl)c1 [Example 75, N-{4-[2-(2,6-dichloro-4-ethylphenyl)acetamido]pyridin-2-yl}-N-(3,4-difluorophenyl)acetamide]	96	6.04

Second part, the molecule after the results:

Human P2X4 HEK Cells (FLIPR Assay) avg Efficacy [%]	pIC50	SMILES
98	6.18	CC(=O)N(c1cccc(C(F)F)c1)c1cc(NC(=O)Cc2ccc(F)cc2Cl)ccn1 [Example 3, N-{4-[2-(2-chloro-4-fluorophenyl)acetamido]pyridin-2-yl}-N-[3-(difluoromethyl)phenyl]acetamide]
97	6.16	CC(=O)N(c1cccc(C(F)(F)F)c1)c1cc(NC(=O)Cc2ccccc2Cl)ccn1 [Example 6, N-{4-[2-(2-chlorophenyl)acetamido]pyridin-2-yl}-N-[3-(trifluoromethyl)phenyl]acetamide]
97	6.17	CC(=O)N(c1cccc(C(F)(F)F)c1)c1cc(NC(=O)Cc2cccc(F)c2Cl)ccn1 [Example 8, N-{4-[2-(2-chloro-3-fluorophenyl)acetamido]pyridin-2-yl}-N-[3-(trifluoromethyl)phenyl]acetamide]
95	6.41	CC(=O)N(c1ccc(Cl)c(C#N)c1)c1cc(NC(=O)Cc2ccccc2Cl)ccn1 [Example 16, N-(4-chloro-3-cyanophenyl)-N-{4-[2-(2-chlorophenyl)acetamido]pyridin-2-yl}acetamide]
99	6.20	CC(=O)N(c1ccc(Cl)c(C#N)c1)c1cc(NC(=O)Cc2ccc(F)cc2Cl)ccn1 [Example 17, N-(4-chloro-3-cyanophenyl)-N-{4-[2-(2-chloro-4-fluorophenyl)acetamido]pyridin-2-yl)acetamide]
99	6.36	CC(=O)N(c1ccc(Cl)c(C#N)c1)c1cc(NC(=O)Cc2cccc(F)c2Cl)ccn1 [Example 18, N-(4-chloro-3-cyanophenyl)-N-{4-[2-(2-chloro-3-fluorophenyl)acetamido]pyridin-2-yl}acetamide]
103	6.27	CC(=O)N(c1ccc(Cl)c(C#N)c1)c1cc(NC(=O)Cc2c(Cl)cccc2Cl)ccn1 [Example 19, N-(4-chloro-3-cyanophenyl)-N-{4-[2-(2,6-dichlorophenyl)acetamido]pyridin-2-yl}acetamide]
100	6.39	CC(=O)N(c1ccc(C)cc1)c1cc(NC(=O)Cc2ccccc2Cl)ccn1 [Example 43, N-{4-[2-(2-chlorophenyl)acetamido]pyridin-2-yl}-N-(4-methylphenyl)acetamide]
99	6.22	CC(=O)N(c1ccc(C)cc1)c1cc(NC(=O)Cc2ccc(F)cc2Cl)ccn1 [Example 44, N-{4-[2-(2-chloro-4-fluorophenyl)acetamido]pyridin-2-yl}-N-(4-methylphenyl)acetamide]
103	6.26	CC(=O)N(c1ccc(C)cc1)c1cc(NC(=O)Cc2c(Cl)cccc2Cl)ccn1 [Example 46, N-{4-[2-(2,6-dichlorophenyl)acetamido]pyridin-2-yl}-N-(4-methylphenyl)acetamide]
98	6.28	CC(=O)N(c1ccc(OC(F)F)cc1)c1cc(NC(=O)Cc2ccccc2Cl)ccn1 [Example 47, N-{4-[2-(2-chlorophenyl)acetamido]pyridin-2-yl}-N-[4-(difluoromethoxy)phenyl]acetamide]
99	6.24	CC(=O)N(c1ccc(OC(F)F)cc1)c1cc(NC(=O)Cc2cccc(F)c2Cl)ccn1 [Example 48, N-{4-[2-(2-chloro-3-fluorophenyl)acetamido]pyridin-2-yl}-N-[4-(difluoromethoxy)phenyl]acetamide]
100	6.28	CC(=O)N(c1ccc(OC(F)F)cc1)c1cc(NC(=O)Cc2c(Cl)cccc2Cl)ccn1 [Example 49, N-{4-[2-(2,6-dichlorophenyl)acetamido]pyridin-2-yl}-N-[4-(difluoromethoxy)phenyl]acetamide]
98	6.22	CC(=O)N(c1ccc(Cl)c(F)c1)c1cc(NC(=O)Cc2c(Cl)cccc2Cl)ccn1 [Example 61, N-(4-chloro-3-fluorophenyl)-N-{4-[2-(2,6-dichlorophenyl)acetamido]pyridin-2-yl)acetamide]
